Data: patent US12303541B2, “Erodium crassifolium L'Her plant extracts and uses thereof” (priority 2015, dated 2025)

Tested on: IL-8
Test: IL-8 levels in TNF-α treated HaCaT cells (EE, fractions, pure compounds)
Assay type: cell-based, human
Conditions: for reduction of IL-8 levels by individual pure compounds: tested separately at the concentration present in comb-1, HaCaT
Description: After incubation, cell excitation was performed with recombinant human tumor necrosis factor-α (TNF-α, PeproTech, 300-01A, USA). Cultures in each well were treated with a final concentration of 50 ng/mL of TNFα and 50 μL plant extract. Three different controls were included in all experiments: (a) non-treated cells, with neither TNF-α nor plant extracts, (b) cells treated with TNF-α alone, (c) cells treated with TNF-α and the solvent (7% ethanol). The supernatant was collected, and the level of IL-8 was measured 16 h post-treatment using the commercial Human CXCL8/IL-8 DuoSet ELISA kit (R&D Systems, DY208-05, USA) according to the manufacturer's protocol. IL-8 is a common biomarker for inflammatory skin diseases. 16 h of TNF-α exposure induce IL-8 levels. Dexamethasone (Sigma-Aldrich, D4902, USA) was used as a positive control.

Compound	IL-8 levels (17.6 μg/mL)	IL-8 reduction activity (all examined concentrations of pure standard)	reduction of IL-8 levels by individual pure compounds	IL-8, % of TNF-α activated cells (100 μM, HaCaT)	level of IL-8 (100 μM, TNF-α 50 ng/mL, 16 h, HaCaT)
Oc1cc(O)c2c(c1)O[C@H](c1cc(O)c(O)c(O)c1)[C@H](O)C2 [EGC, (−)-Epigallocatechin]	led to increased IL-8 levels	None of the examined concentrations of pure standard EGC showed any significant IL-8 reduction activity	inactive for reduction of IL-8 levels		
catechin			inactive for reduction of IL-8 levels		
O=C(O)c1cc(O)c(O)c(O)c1 [gallic acid]			inactive for reduction of IL-8 levels		
C[C@@H]1C[C@H]2[C@@H]3CCC4=CC(=O)C=C[C@]4(C)[C@@]3(F)[C@@H](O)C[C@]2(C)[C@@]1(O)C(=O)CO [dexamethasone, Dexamethasone]				59.4%	104.0 ± 3.0 pg/mL
